Assay results from patent publication US7022719B2, “Preventing and reversing the formation of advance glycosylation endproducts” (Alteon, Inc., priority 1995, dated 2006).
Where “and” joins values, the source holds several entries; their conditions need not be identical. Identical values can stand only once. Counter-ions that a name gives are not always drawn. Like-named read-outs stand apart in the source and are kept apart here.

Legend:
[1] = system: cross-linking of glycated bovine serum albumin (AGE-BSA) to rat tail tendon collagen; assay: Cross-linking Inhibition Assay; conditions: for IC50: inhibition of AGE-BSA cross-linking to collagen-coated plate
Protocol: The following method was used to evaluate the ability of the compounds of the present invention to inhibit the cross-linking of glycated bovine serum albumin (AGE-BSA) to the rat tail tendon collagen-coated 96-well plate.
The blocking solution was removed from the wells by, washing the plate twice with PBS-'Tween 20 solution (0.05% Tween 20) using a NUNq-multiprobe or Dynatech ELISA-plate washer. Cross-linking of AGE-BSA (1 to 10 mg per well depending on the batch of AGE-BSA) to rat tail tendon collagen coated plate was performed with and without the testing ‘compound dissolved in PBS buffer at pH 7.4 at the desired concentrations by the, addition of 50 μl each of the AGE-BSA diluted in PBS or in the solution of test compound at 37° C. for 4 hours. Unbrowned BSA in PBS buffer with or without testing compound were added to the separate wells as the blanks. The un-cross-linked AGE-BSA was then removed by washing the wells three times with PBS-Tween buffer. The amount of AGE-BSA cross-linked to the tail tendon collagen-coated plate was then quantitated using a polyclonal antibody raised against AGE-RNase. After a one-hour incubation period, AGE antibody was removed by washing 4 times with PBS-Tween.
The bound AGE antibody was then detected with the addition of horseradish peroxidase-conjugated secondary antibody—goat anti-rabbit immunoglobulin and incubation for 30 minutes. […] The reaction was allowed for an additional 15 minutes and the absorbance was read at 410 nm in a Dynatech plate reader.

[2] = system: AGE-BSA crosslinked to collagen; assay: Cross-link Breaking Assay (sandwich enzyme immunoassay); assay type: biochemical; conditions: for Breaking Anti-AGE: anti-AGE antibody; for Breaking Anti-BSA: anti-BSA antibody
Protocol: The present invention also involves a novel sandwich enzyme immunoassay used to ascertain the ability of test compounds to “break” or reverse already formed advanced glycosylation endproducts by detecting the breaking of AGE (Advanced glycosylation endproduct) moieties from AGE-crosslinked protein. This assay comprises: • a) incubation of AGE-modified bovine serum albumin (AGE BSA) on collagen-coated wells of microtiter plates for a period of 2–6 hours' at a temperature of 37° C.; • b) washing of the wells with PBS-Tween; • c) application of the test compounds to the washed wells of step b; • d) incubation of the test compounds applied to the washed wells for an additional 12–24 hours at a temperature of about 37° C.; and • e) detection of the AGE-breaking using an antibody raised against AGE-ribonuclease or cross-link breaking with an antibody against BSA.
In order to ascertain the ability of the compounds of the instant invention to “break” or reverse already formed advanced glycosylation endproducts, a novel sandwich enzyme immunoassay was developed which detects breaking of AGE (Advanced glycosylation endproduct) moieties from AGE-crosslinked protein. The assay utilizes collagen-coated 96 well microtiter plates that are obtained commercially. […] Following an incubation period of 16 hours (37° C.) cross-link-breaking is detected using an antibody raised against AGE-ribonuclease or with an antibody against BSA. […] Details of the assay are as follows:
Methods Preparation of Solutions and Buffers • 1. AGE-BSA stock solutions were prepared as follows. Sodium phosphate buffer (0.4 M) was prepared by dissolving 6 grams of monobasic sodium phosphate in 100 ml of distilled water, 7 grams of dibasic sodium phosphate (0.4 M) in 100 ml of distilled water and adjusting the pH of the dibasic solution to 7.4 with the monobasic solution. Sodium azide (0.02 grams) was added per 100 ml volume to inhibit bacterial growth. The BSA solution was prepared as follows: 400 mg of Type V BSA (bovine serum albumin) was added for each ml of sodium phosphate buffer (above). A 400 mM glucose solution was prepared by dissolving 7.2 grams of dextrose in 100 ml of sodium phosphate buffer (above). The BSA and glucose solutions were mixed 1:1 and incubated at 37° C. for 12 weeks. The pH of the incubation mixture was monitored weekly and adjusted to pH 7.4 if necessary. After 12 weeks, the AGE-BSA solution was dialyzed against PBS for 48 hours with four buffer changes, each at a 1:500 ratio of solution to dialysis buffer. Protein concentration was determined by the micro-Lowry method. The AGE-BSA stock solution was aliquoted and stored at −20° C. […] Working solutions for crosslinking and breaking studies were prepared as follows. Test compounds were dissolved in PBS and the pH was adjusted to pH 7.4 if necessary. AGE-BSA stock solution was diluted in PBS to measure maximum crosslinking and in the inhibitor solution for testing inhibitory activity of compounds. The concentration of AGE-BSA necessary to achieve the optimum sensitivity was determined by initial titration of each lot of AGE-BSA. • 3. Wash buffer (“PBS-Tween”) was, prepared as follows. PBS was prepared by dissolving the following salts in one liter of distilled water: NaCl, 8 grams; KC1, 0.2 gram, KH2PO4. […] Tween-20 was added to a final concentration of 0.05% (vol/vol). • 4. Substrates for detection of secondary antibody binding were prepared by diluting the HRP substrate buffer 1:10 in distilled water and mixing with ABTS chromogen 1:50 just prior to use. Assay Procedures • 1. Biocoat plates were blocked with 300 μl of “Superbloc”. Plates were blocked for one hour at room temperature and were washed with PBS-Tween three times with the Dynatech platewasher before addition of test reagents. • 2. Each experiment was set up in the following manner. The first three wells of the Biocoat plate were used for the reagent blank.

tail tendon collagen = assay: CNBr peptide maps of tail tendon collagen from diabetic rats; assay type: biochemical, rat; conditions: tail tendon collagen of rats diabetic for 32 weeks, treated before cyanogen bromide digestion
cross-linked AGE-BSA = assay: Breaking of AGE-BSA polymer gel (SDS-PAGE); assay type: biochemical; conditions: 10 mm, overnight at 37° C.
Protocol: BSA and glucose solutions (100 ml each) were mixed in the one liter Coming sterile flask, screw-capped tight and incubated at 56° C. without shaking. The bottle was opened once a week to remove aliquots for testing. Reaction was continued for 9 weeks when AGE-BSA polymer formation was observed.
Pieces of AGE-BSA gel was washed with PBS until no more protein was leached in the supernatant, blotted dry with paper towels. About 50 mg of the washed gel was incubated either with PBS or 10 mm 3-(2-phenyl-2-oxoethyl)thiazolium bromide (ALT 766) overnight at 37° C. The supernatants were analyzed by SDS-PAGE and stained with coommassie blue.

[3] = detection with anti-AGE antibody, read-out: IC50 (mM) Anti-AGE
[4] = detection with anti-BSA antibody, read-out: IC50 (mM) Anti-BSA

C#CC[n+]1ccsc1.[Br-]
melting point: 64 to 66 °C

C#CC[n+]1cscc1C.[Br-]
melting point: 213 to 215 °C

C#CC[n+]1csc(C)c1.[Br-]
melting point: 127 to 129 °C

C#CC[n+]1csc(C)c1C.[Br-]
melting point: 198 to 200 °C

C#CC[n+]1csc(CCO)c1C.[Br-]
melting point: 132 to 134 °C

Cc1c(CCO)sc[n+]1CC(=O)C(C)(C)C.[Br-]
melting point: 186 to 187 °C

Cc1sc[n+](CC(=O)c2cc(C(C)(C)C)c(O)c(C(C)(C)C)c2)c1C (as salt: bromide) [3-(2-(3′,5′-di-tert-butyl-4′-hydroxypheny].)-2-oxoethyl]-4,5-dimethyl-thiazolium bromide]
melting point: 243 to 244 °C (dec.)

C=Cc1sc[n+](CC(=O)c2cc(C(C)(C)C)c(O)c(C(C)(C)C)c2)c1C (as salt: bromide) [3-(2-(3′,5′-tert-butyl-4′-hydroxyphenyl)-2-oxoethyl)-4-methyl-5-vinyl-thiazolium bromide]
melting point: 208 to 209 °C

COC(=O)c1ccc(NC(=O)C[n+]2csc(CCO)c2C)cc1O (as salt: bromide) [3-(2-(4′-carbmethoxy-3′-hydroxyanilino)-2-oxoethyl]-4-methyl-5-(2′-hydroxyethyl)-thiazolium bromide]
melting point: 222 to 223 °C

Cc1c[n+](CC(=O)c2cc(C(C)(C)C)c(O)c(C(C)(C)C)c2)cs1 (as salt: bromide) [3-[2-(3′,5′-di-tert-butyl-4′-hydroxyphenyl)-2-oxoethyl)-5-methyl-thiazolium bromide]
melting point: 210 to 211 °C

CCCCN(CCCC)C(=O)C[n+]1csc(CCO)c1C.[Br-] [3-(2-Dibutylamino-2-oxoethyl]-4-methyl-5-(2′-hydroxyethyl)-thiazolium bromide]
melting point: 78 to 80 °C | Relative Cross-link Inhibition (at 10 mM) [1]: 0.8% (10 mm) | Breaking Anti-AGE ([2]; at 10 mM): 25% | Breaking Anti-BSA ([2]; at 10 mM): 38%

Cc1csc[n+]1CC(N)=O.[Br-] [3-(2-amino-2-oxoethyl)-4-methyl-thiazolium bromide]
IC50 [1]: 700 µM | Breaking Anti-AGE ([2]; at 30 mM): 89% | Breaking Anti-BSA ([2]; at 30 mM): 44% | IC50 [2, 3]: 4.7 mM | IC50 [2, 4]: 38.6 mM

NC(=O)C[n+]1csc2ccccc21.[Br-] [3-(2-amino-2-oxoethyl)-benzothiazolium bromide]
IC50 [1]: 20 µM | Breaking Anti-AGE ([2]; concentration not given): 77% | Breaking Anti-BSA ([2]; concentration not given): 65% | IC50 [2, 3]: 0.4 mM | IC50 [2, 4]: 0.52 mM

COC(=O)C[n+]1csc(C)c1C.[Br-] [3-(2-methoxy-2-oxoethyl)-4,5-dimethylthiazolium bromide]
melting point: 184 to 185 °C (dec.) | IC50 [1]: 480 µM | Breaking Anti-AGE ([2]; at 30 mM): 63% | Breaking Anti-BSA ([2]; at 30 mM): 47%

COC(=O)C[n+]1csc(C)c1.[Br-] [3-(2-methoxy-2-oxoethyl)-5-methyl-thiazolium bromide]
IC50 [1]: 3200 µM | Breaking Anti-AGE ([2]; at 30 mM): 72% | Breaking Anti-BSA ([2]; at 30 mM): 27%

COC(=O)C[n+]1csc2ccccc21.[Br-] [3-(2-methoxy-2-oxoethyl)-benzothiazolium bromide]
IC50 [1]: > 10000 µM | Breaking Anti-AGE ([2]; at 30 mM): 66% | Breaking Anti-BSA ([2]; at 30 mM): 37% | IC50 [2, 3]: 1.2 mM | IC50 [2, 4]: 25.9 mM

O=C(C[n+]1ccsc1)c1ccccc1.[Br-] [3-(2-phenyl-2-oxoethyl) thiazolium bromide]
electrophoresis of CNBr-digested collagen after treatment (tail tendon collagen): indistinguishable from untreated, non-diabetic (control) collagen | IC50 [1]: 11100 µM | release of BSA from pre-formed AGE-mediated AGE-BSA/collagen complexes ([2]; AGE-BSA reacted with unmodified, native collagen): concentration-dependent release of BSA | Breaking Anti-AGE ([2]; concentration not given): 73% | Breaking Anti-BSA ([2]; concentration not given): 98% | IC50 [2, 3]: 0.02 mM | IC50 [2, 4]: 0.014 mM | breaking of cross-linked AGE-BSA (SDS-PAGE, FIG. 2) (cross-linked AGE-BSA): breaking of cross-linked AGE-BSA

Cc1sc[n+](CC(=O)c2ccccc2)c1C.[Br-] [3-(2-phenyl-2-oxoethyl)-4,5-dimethylthiazolium bromide]
Relative Cross-link Inhibition (at 10 mM) [1]: 37% | Breaking Anti-AGE ([2]; at 30 mM): 56%/ND (30)

Cc1c(CCO)sc[n+]1CC(=O)c1ccccc1.[Br-] [3-(2-phenyl-2-oxoethyl)-4-methyl-5-(2-hydroxyethyl)-thiazolium bromide]
IC50 [1]: > 10000 µM | Breaking Anti-AGE ([2]; at 30 mM): 67% | Breaking Anti-BSA ([2]; at 30 mM): 13% | IC50 [2, 3]: 14.3 mM

C=Cc1sc[n+](CC(=O)c2ccccc2)c1C.[Br-] [3-(2-phenyl-2-oxoethyl)-4-methyl-5-vinyl-thiazolium bromide]
melting point: 176 to 177 °C | Breaking Anti-AGE ([2]; at 1 mM): 62% | Breaking Anti-BSA ([2]; at 1 mM): 82% | IC50 [2, 4]: 0.1 mM

Cc1csc[n+]1CC(=O)c1ccccc1.[Br-] [3-(2-phenyl-2-oxoethyl)-4-methylthiazolium bromide]
IC50 [1]: 5600 µM | Breaking Anti-AGE ([2]; at 30 mM): 68% | Breaking Anti-BSA ([2]; at 30 mM): 66% | IC50 [2, 3]: 0.23 mM | IC50 [2, 4]: 0.3 mM

CC(C)(C)C(=O)C[n+]1ccsc1.[Br-] [3-(2-tert-butyl-2-oxoethyl)-thiazolium bromide]
melting point: 211 to 212 °C | Breaking Anti-AGE ([2]; at 10 mM): 28% | Breaking Anti-BSA ([2]; at 10 mM): 37%

Cc1c(CCO)sc[n+]1Cc1ccccc1[N+](=O)[O-].[Br-] [3-(2′-nitrobenzyl)-4-methyl-5-(2′-hydroxyethyl)-thiazolium bromide]
melting point: 215 to 216 °C | Breaking Anti-AGE ([2]; at 10 mM): 11% | Breaking Anti-BSA ([2]; at 10 mM): 13%

COc1cccc(C[n+]2csc(CCO)c2C)c1.[Cl-] [3-(3′-methoxybenzyl)-4-methyl-5-(2′-hydroxyethyl)-thiazolium chloride]
melting point: 135 to 136 °C | Breaking Anti-AGE ([2]; at 10 mM): 4% and 14% | Breaking Anti-BSA ([2]; at 10 mM): 19% and 25%

Cc1c[n+](CC(=O)c2cc(C(C)(C)C)c(O)c(C(C)(C)C)c2)cs1 [3-[2-(3′,5′-di-tert-butyl-4′-hydroxyphenyl)-2-oxoethyl)-5-methyl-thiazolium bromide]
IC50 [1]: 780 µM | Breaking Anti-AGE ([2]; at 1 mM): 65% | Breaking Anti-AGE ([2]; at 10 mM): 48% | Breaking Anti-BSA ([2]; at 1 mM): 69% | Breaking Anti-BSA ([2]; at 10 mM): 49% | IC50 [2, 3]: 3 mM

Cc1c(CCOCc2c(Cl)cccc2Cl)sc[n+]1N.Cc1cc(C)c(S(=O)(=O)[O-])c(C)c1 [3-amino-4-methyl-5-(2(2′,6′-dichlorobenzyloxy)ethyl]-thiazolium mesitylenesulfonate]
Relative Cross-link Inhibition ([1]; 3 mM): 26.5% (3 mm) | Breaking Anti-AGE ([2]; at 10 mM): 31% | Breaking Anti-BSA ([2]; at 10 mM): 54%
